Reference: patent US11602532B2, “Nanoparticle formulations of decoquinate in the form of solid solution” (CAS Lamvac (Guangzhou) Biomedical Technology Co., Ltd., priority 2019, dated 2023)
Where two headings read alike, the source gives them in different places.

What was measured:
[1] = HPLC analysis of decoquinate after HME, acid or alkaline treatment; type: physicochemical; settings: treated with pH 1.2 solution for 2 days
Description: Samples are dialyzed against distilled water, diluted and analyzed with the established method. […] Differential scanning calorimetry (DSC) analysis and X-ray diffraction analysis were performed for the selected formulations in the Examples described above.

[2] = system: Pf3D7; test: Malaria SYBR fluorescence (MSF) blood stage assay, Pf3D7; type: cell-based; settings: Plasmodium falciparum, read-out: IC50 (nM) Mean
Description: (§1) Fifteen different preparations of decoquinate solid solutions as described in Examples were tested in cell culture assays to assess the growth inhibition of blood stage Plasmodium in freshly isolated human blood cells and the growth inhibition of Plasmodium in the liver stage in cell culture of HepG2 cells. The malaria SYBR fluorescence (MSF) assay was performed to detect the parasite DNA of Plasmodium falciparum in late-ring or early-trophozoite stages. […] The intensity of fluorescence generated by the binding of SYBR Green I dye to Plasmodium DNA is quantitatively proportional to the number of parasites. The detailed description of method refers to SOP of the inventors.
(§2) Chloroquine and artemisinin were used as positive controls in the same experiments.

[3] = system: pfB74F6 (PS); test: Malaria SYBR fluorescence (MSF) blood stage assay, pfB74F6; type: cell-based; settings: Plasmodium falciparum, read-out: IC50 (nM) Mean
Description: as §1, §2

[4] = system: pfB47D6 (PS); test: Malaria SYBR fluorescence (MSF) blood stage assay, pfB47D6; type: cell-based; settings: Plasmodium falciparum, read-out: IC50 (nM) Mean
Description: as §1, §2

[5] = system: pfB64G11 (PS); test: Malaria SYBR fluorescence (MSF) blood stage assay, pfB64G11; type: cell-based; settings: Plasmodium falciparum, read-out: IC50 (nM) Mean
Description: as §1, §2

[6] = system: pfDd2; test: Malaria SYBR fluorescence (MSF) blood stage assay, pfDd2; type: cell-based; settings: Plasmodium falciparum, read-out: IC50 (nM) Mean
Description: as §1, §2

[7] = system: pfB74C4 (PS); test: Malaria SYBR fluorescence (MSF) blood stage assay, pfB74C4; type: cell-based; settings: Plasmodium falciparum, read-out: IC50 (nM) Mean
Description: as §1, §2

[8] = system: pfB12D9 (PS); test: Malaria SYBR fluorescence (MSF) blood stage assay, pfB12D9; type: cell-based; settings: Plasmodium falciparum, read-out: IC50 (nM) Mean
Description: as §1
Table 6 is the results showing in vitro antimalarial potency of decoquinate HME formulations prepared from Example 8 (F8) and Example 15 (F15). […] Chloroquine and artemisinin were used as positive controls in the same experiments.
(§3) The HME solid solutions were treated with alkaline buffer (pH 9), or with high temperature (60° C.) or with high humidity (92%) for 5 or 10 days respectively and then used for testing decoquinate inhibitory effects in in vitro blood stage experiments using freshly prepared red blood cells infected with Plasmodium Pf803 or PfB12D9. The base pH was neutralized by dialysis of decoquinate HME samples before used in cell culture experiments.

[9] = system: Pf803; test: Malaria SYBR fluorescence (MSF) blood stage assay, Pf803; type: cell-based; settings: Plasmodium falciparum, read-out: IC50 (nM) Mean
Description: as §1, §2, §3

[10] = system: Plasmodium berghei ANKA 868 expressing luciferase; test: Inhibition of liver stage development assay (ILSDA) in HepG2 cells; type: cell-based; settings: HepG2, read-out: PQ Mean (IC50)
Description: For the inhibition of liver stage development assay (ILSDA), HepG2 liver cells were cultured with Plasmodium berghei sporozoite expressing firefly luciferase in the presence of a series of dilutions of test compound. In the case of formulations, the compound concentration was determined by the quantitation of HPLC. […] The culture was maintained in microtiter plates for 48 hours after sporozoite invasion and intracellular proliferation of P. berghei parasites in HepG2 cells. The growth inhibition of the parasites by the test compound or the compound complexed with the excipients was determined by measuring the luminescent intensity produced by the process of luciferase catalyzing the substrates which were added by the end of incubation.
The experiments were carried out on HepG2 cells incubated with the sporozoites isolated from salivary glands of infected mosquitoes. […] The results were expressed by the half maximal inhibition concentration (IC50).

[11] = system: Plasmodium berghei ANKA (Pb 868 sporozoites); test: Causal prophylactic efficacy against sporozoite inoculation in NIH-Swiss female mice; type: in vivo
Description: The NIH-Swiss female mice used for the experiment were raised for at least 7 days after arrival. At the start of the experiment, the mice were 7 weeks old. Only one mouse was housed in each cage and maintained in a room with a temperature range of 18 to 26° C. with a relative humidity of 34% to 68% in a 12/12h light-dark cycle. Food and water were provided ad libitum during quarantine and throughout the study. This experiment was carried out in strict accordance with the relevant animal testing regulations (the Chinese State Council's Laboratory Animal Management Regulations, Revised Mar. 1, 2017). The decoquinate suspension used in the animal experiment was from the product of Examples 2, 8, 9, 11, 12 and 15 (F2, F8, F9, F11, F12 and F15), prepared with saline and subjected to ultrasonic treatment for 5 minutes. Each animal experiment was repeated at least three times with a group of 5 each time, so that at least 15 mice were tested in each group. The mice were inoculated with Plasmodium parasites by an injection of 50,000 sporozoites of Plasmodium berghei ANKA (Pb 868 sporozoites) through the tail vein of each mouse. Testing compound or formulation compound was administered to mice by PO (oral administration, by the manually intragastric method) the day before, the day of, and the next day after Plasmodium inoculation. The formulation compound suspended in saline were quantitated by HPLC method before dosing animals. The positive control was primaquine, an antimalarial drug used for the liver-stage Plasmodium. The vehicle control was the components used in the solid dispersion of decoquinate other than decoquinate. No anti-malarial activity was found with the vehicle control, the results of which were consistent with those obtained by using only saline as a negative control. The detection of Plasmodium parasitemia was performed as follows: a conventional method was used to count red blood cells per mm^3 of blood in that a thin film of blood was prepared and stained with 3% Giemsa for 20 minutes; and then the number of infected red blood cells per 1000 red blood cells was counted under oil microscope to obtain erythrocyte infected rate (EIR, ‰). If the parasites were not seen in the thin film, the thick film was prepared for detection of parasites and the results expressed as the parasite number per 100 white blood cells (WBC). Survival rates were calculated on day 60 post-infection for the still live mice versus the dead mice.
[…] The results shown were the number of infected mice on day 12 from the microscopic detection of parasites of thin or thick films. The results also include the protection rate on day 12 and survival rate on day 60. The products from F8, F9, F11 and F15 have 100% survival rates whereas PQ, F2 and F12 have survival rates of 80%.
Table 8 illustrates efficacy studies of the HME compositions prepared in various examples in mice infected with Plasmodium berghei expressing luciferase; wherein decoquinate given to animals at a dose of 5 mg per kg was in the saline suspension of F2, F8, F9, F11, F12, and […] HME preparations; the saline group as a negative control; PQ represents the primaquine group used as a positive control at a dose of 30 mg per kg body weight. […] Protection rates were calculated according to the data of parasitemia detection in mice on day 12 of Plasmodium sporozoite inoculation and the survival rates in each group on day 60 post the sporozoite inoculation.

[12] = primaquine 20 mg/kg (table), intragastric, 3 daily doses, 5 mice per group

**Q.** With CCCCCCCCCCOc1cc2c(O)c(C(=O)OCC)cnc2cc1OCC [Decoquinate, ethyl-6-decyloxy-7-ethoxy-4-hydroxyquinoline-3-carboxylate] as the compound, how does the “peak pattern and retention time of decoquinate in HPLC” value [1] read?
**A.** change in the peak pattern and the shift in the retention time

**Q.** Which IC50 ([2]; 72 h) does the source give for CCN(CC)CCCC(C)Nc1ccnc2cc(Cl)ccc12 (centres unmarked) [Chloroquine] here?
**A.** 57.5 nM

**Q.** What about the IC50 [3] of the same compound?
**A.** 79.2 nM

**Q.** And the IC50 [4]?
**A.** 78.2 nM

**Q.** What about the IC50 [5] of the same compound?
**A.** 30.4 nM

**Q.** And the IC50 ([6]; 72 h)?
**A.** 244 nM

**Q.** And the IC50 [7]?
**A.** 59.3 nM

**Q.** What about the IC50 [8] of the same compound?
**A.** 63.3 nM

**Q.** What about the IC50 ([9]; 72 h) of the same compound?
**A.** 957 nM

**Q.** With COc1cc(NC(C)CCCN)c2ncccc2c1 (centres unmarked) [PQ, primaquine] as the compound, how does the IC50 [10] read?
**A.** 1.73 µM

**Q.** And the survival rate ([11]; 30 mg primaquine per kg body weight, day 60)?
**A.** 80%

**Q.** And the “Infected (Day 12)” value [11, 12]?
**A.** 2

**Q.** What about the “Protected rate (Day 12)” value [11, 12] of the same compound?
**A.** 60

**Q.** What about the “Survival rate (Day 32)” value [11, 12] of the same compound?
**A.** 80%

**Q.** What about the “Survived (Day 32)” value [11, 12] of the same compound?
**A.** 4

**Q.** What does the source list for C[C@@H]1CC[C@H]2[C@@H](C)C(=O)O[C@@H]3O[C@@]4(C)CC[C@@H]1[C@]32OO4 [Artemisinin]?
**A.** IC50 ([2]; blood stage, Pf3D7, 72h): 23.1 nM; IC50 ([3]; blood stage, pfB74F6, sample collected from patients): 14.5 nM; IC50 ([4]; blood stage, pfB47D6, sample collected from patients): 25.4 nM; IC50 ([5]; blood stage, pfB64G11, sample collected from patients): 6.66 nM; IC50 ([6]; blood stage, pfDd2 (multidrug resistance including chloroquine), 72h): 26 nM; IC50 ([7]; blood stage, pfB74C4, sample collected from patients): 26.4 nM; IC50 [8]: 24.1 nM; IC50 ([9]; blood stage, Pf803 (chloroquine resistance), 72h): 32 nM
